We go through five compounds from US12721833B2, “Small molecule anticancer agents, combinations and uses thereof” (University of Florida Research Foundation, Incorporated, priority 2020, dated 2026).

In one data set the test system is EGFR and HER2. Briefly: EGFR and HER2 levels in patient-derived breast cancer cells (FIG. 4A). The conditions noted are these: patient-derived cells from a TNBC (HCI-001) and a drug resistant, metastatic, HER2+ breast cancer (HCI-012/MLR). In kind it is cell-based.
Data set [1] relates to DR4, DR5, HER3 oligomerization and Akt phosphorylation. Briefly: Immunoblot analysis in MDA-MB-468 TNBC and BT474 HER2+ lines (FIG. 2B). Format: cell-based. The conditions noted are these: the two compounds similar.
A further data set relates to MDA-MB-468 cells. Briefly: MTT cell viability assay. Format: cell-based. The conditions noted are these: for potency of cytotoxicity relative to tcyDTDO: MDA-MB-468 breast cancer cells, compared with tcyDTDO; for effect on cell viability: MDA-MB-468 cells, increasing concentrations (FIG. 7). The procedure: (§1) MTT cell viability is evaluated using MTT (3-(4,5-dimethylthiazol-2-yl)-2,5-diphenyltetrazolium bromide) assays carried out based on the manufacturer's instructions (kit CGD1, Sigma-Aldrich, St. Louis, MO).

The subject of data set [2] is DR4, DR5, EGFR, GRP78, AGR2, XBP1s in MDA-MB-468 cells. Briefly: Immunoblots in MDA-MB-468 cells (FIG. 9, FIG. 10). In kind it is cell-based. The conditions noted are these: for DR5 expression / ER-stress induced proteins GRP78 and AGR2: MDA-MB-468 cells (FIG. 9); for potency vs tcyDTDO in upregulating and oligomerizing DR4 and DR5 and increasing XBP1s, GRP78, and AGR2 / disulfide bond-dependent oligomerization of DR4, DR5, and EGFR: MDA-MB-468 cells; for potency vs tcyDTDO in upregulating and oligomerizing DR4 and DR5 and increasing XBP1s, GRP78, and AGR2: 2.5 mM (FIG. 10); for disulfide bond-dependent oligomerization of DR4, DR5, and EGFR: at the concentrations that induce cancer cell death (FIG. 9).

Data set [3] relates to DR4, DR5, and EGFR oligomerization. Description: Immunoblot with inhibitors of ER acetyltransferases (FIG. 3C). In kind it is cell-based.
Another data set relates to breast cancer cell lines. Description: Cell viability assays in breast cancer cell lines (FIG. 2C, FIG. 3B). Format: cell-based. The conditions noted are these: increasing concentrations. The procedure:
as §1

Another data set concerns the target T1, AGR2 (Homo sapiens, UniProt O95994).
T1 sequence (O95994 21-175): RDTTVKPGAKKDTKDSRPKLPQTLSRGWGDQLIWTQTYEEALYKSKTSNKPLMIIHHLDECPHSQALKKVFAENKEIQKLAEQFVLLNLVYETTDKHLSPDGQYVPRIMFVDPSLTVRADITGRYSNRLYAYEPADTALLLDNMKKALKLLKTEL
Briefly: Protein thiolate reactivity assay: biotin-tagged DDA binding to AGR2, with competitors. The conditions noted are these: competition with DDAs. The procedure:
To measure DDA and NSC322072 covalent binding to AGR2, purified, recombinant AGR2 is incubated with a biotin-tagged DDA compound for 1 h at 37° C. in the presence or absence of non-biotinylated competitor DDAs or NSC322072. Reaction mixtures are boiled with SDS-PAGE sample buffer supplemented with 100 mM N-ethylmaleimide for ca. 10 minutes to block free thiolate groups remaining after the reaction. Conjugation of AGR2 by DDAs is measured by evaluating AGR2 modification in the modified immunoblot assay in Example 16.
Samples from the biotin-DDA/AGR2 reactions (Example 14) are resolved by non-reducing SDS-PAGE and transferred to nitrocellulose membranes. The membranes are blocked and analyzed by immunoblot with antibodies to AGR2 to verify addition of AGR2 protein to the assays. Anti-AGR2 primary antibody is detected with an Alkaline Phosphatase-conjugated secondary antibody. Separate, replicate membranes are probed with Streptavidin-Alkaline phosphatase. […] Both the AGR2 immunoblots and the Streptavidin-Alkaline phosphatase blots are detected using the standard Alkaline Phosphatase detection compounds, Bromo-chloro-indoyl Phosphate (BCIP)/Nitroblue Tetrazolium (NBT).

A further data set relates to pancreatic PDX tumors. Briefly: Treatment of mice bearing pancreatic PDX tumors (FIG. 4B). In kind it is in vivo. The conditions noted are these: separation of cancer cells from stroma and pancreatic cancer cell death.
Data set [4] has as its system human breast tumors growing in rodent models. The conditions noted are these: cited from earlier work.

In the case of `CO[C@H]1C[C@@H]2CS(=O)(=O)SC[C@H]2C[C@@H]1OC` (racemic) [DMtcyDTDO, (4aS,6S,7S,8aS)- and (4aR,6R,7R,8aR)-6,7-Dimethoxyoctahydrobenzo [d][1,2]dithiine 2,2-dioxide], the “EGFR and HER2 levels” value in the data set with EGFR and HER2 was “decrease EGFR and HER2 levels”. For the same compound, in data set [1], the Akt phosphorylation result is “decrease Akt phosphorylation”; the “DR4, DR5, and HER3 oligomerization” value is “increase DR4, DR5, and HER3 oligomerization”. Besides, in the data set on MDA-MB-468 cells (FIG. 1B legend, test not stated there), the “potency relative to TcyDTDO” value was “twice as potent as TcyDTDO”. In the data set on MDA-MB-468 cells, the “potency of cytotoxicity relative to tcyDTDO” value is on record as 2 fold and the “effect on cell viability” value is listed as “decrease the viability of the cancer cell lines in a concentration-dependent manner”. In data set [2], the DR5 expression entry is on record as “upregulate DR5”; the “ER-stress induced proteins GRP78 and AGR2” value is “increase the ER-stress induced proteins GRP78 and AGR2”; the “potency vs tcyDTDO in upregulating and oligomerizing DR4 and DR5 and increasing XBP1s, GRP78, and AGR2” value is on record as “more potent than tcyDTDO”; the “disulfide bond-dependent oligomerization of DR4, DR5, and EGFR” value is “induce disulfide bond-dependent oligomerization of DR4, DR5, and EGFR”.

`O=S1(=O)CC2CC(F)C(F)CC2CS1` (racemic) [dFtcyDTDO, (4aS,6S,7S,8aS)- and (4aR,6R,7R,8aR)-6,7-Difluorooctahydrobenzo[d][1,2]dithiine 2,2-dioxide]: in the data set on MDA-MB-468 cells, the “potency of cytotoxicity relative to tcyDTDO” value came to 2 fold and the “effect on cell viability” value is listed as “decrease the viability of the cancer cell lines in a concentration-dependent manner”. Also, in data set [2], the DR5 expression entry is listed as “upregulate DR5”; the “ER-stress induced proteins GRP78 and AGR2” value is “increase the ER-stress induced proteins GRP78 and AGR2”; the “potency vs tcyDTDO in upregulating and oligomerizing DR4 and DR5 and increasing XBP1s, GRP78, and AGR2” value is recorded as “more potent than tcyDTDO”; the “disulfide bond-dependent oligomerization of DR4, DR5, and EGFR” value is “induce disulfide bond-dependent oligomerization of DR4, DR5, and EGFR”.

As for `CNC(=O)Nc1ccc2c(c1)CC[C@@]21OC(=O)N(CC(=O)N(Cc2ccc(F)cc2)[C@@H](C)C(F)(F)F)C1=O` [A-485], the “DR4, DR5, and EGFR oligomerization” value in data set [3] is “without effect”.

Take `CCCCCC(C[N+]1(C)CCOCC1)C(=O)/C=C/c1ccccc1.[Br-]` (stereo not drawn) [NSC322072]: the “EGFR and HER2 levels” value with EGFR and HER2 is “decrease EGFR and HER2 levels”. In addition, in [1], the Akt phosphorylation entry is “decrease Akt phosphorylation”; the “DR4, DR5, and HER3 oligomerization” value was “increase DR4, DR5, and HER3 oligomerization”. The “effect on cell viability” value in the data set on breast cancer cell lines is reported as “decrease the viability of three different breast cancer cell lines in a concentration-dependent manner”. For the same compound, at AGR2, the “binding site on AGR2 (competition experiments)” value is listed as “bind to the same site on AGR2”.

Consider `O=S1(=O)CC2CCCCC2CS1` (stereo not drawn) [TcyDTDO], for which the “effect on pancreatic PDX tumors (H&E)” value with pancreatic PDX tumors was “causes disintegration of the tumors”. The “in vivo anticancer activity” value in data set [4] was “established in vivo anticancer activity”.
